# According to patent US9212209B2, “Screening methods for spinal muscular atrophy” (Indiana University Research and Technology Corporation, priority 2012, dated 2015):
# Read-outs that look alike come from different tables or passages of the source.
# Test system: SMN2-luciferase reporter
# Test: SMN2-luciferase reporter assay (clonal HEK-293 SMN2-luc cells)
# Assay type: cell-based, human
# Design: % activation: concentration or dose not given beside the values
# Conditions: for Emax: read-out: Max % Activity; for Max. fold increase: cell-based reporter response to known SMN2 modulating compounds; for % activation: Table 5
# Method: The reporter cell lines were plated at 50,000 cells per well in 96-well plates and incubated overnight. Compounds were added to each well and incubated at 37° C. overnight. The final DMSO concentration was 0.1%. Luciferase activity was assayed using either STEADYGLO (PROMEGA E2510) or DUALGLO (PROMEGA E2920) luciferase using the WALLAC ENVISION multilabel reader. For detailed assay conditions see Table 2A. All data points were transformed from CPS to percent increase over basal expression in the treated control wells (DMSO or H2O as appropriate).
# Plates were sealed with porous paper tape and incubated for 24 hours. […] For comparison, data points were transformed from CPS to percent activation over basal expression in the DMSO treated control wells.
# For comparison, all data points are expressed as percent increase over basal luciferase expression in the control cells.
# [1] = Homo sapiens, HEK293, reporter assay, Table 6, read-out: Ec50
# [2] = Homo sapiens, HEK293, reporter assay, Table 6
SMILES,"Active (reporter assay, Table 6)",further results
CC1CC(C(=O)Nc2ccc(Cl)cc2F)=NO1 (centres unmarked) [CAL-6],Yes,EC50 [1]: 6500 nM; Emax [2]: 180%
CCOc1ccc(Br)cc1C1CC(=O)Nc2cc(OC)c(OC)c(OC)c21 (centres unmarked) [CAL-50],No,
COc1cc2c(c(OC)c1OCCO)C(c1cc(Cl)ccc1F)CC(=O)N2 (centres unmarked) [LDN-213771],No,
CC(C)c1cc(C(=O)Nc2ccccc2C(F)(F)F)no1 [CAL-31],Yes,EC50 [1]: 16000 nM; Emax [2]: 154%
O=C(Nc1nc(C2CCC2)cs1)c1ccc(F)c(Cl)c1 [LDN-212013],Yes,EC50 [1]: 500 nM; Emax [2]: 100%
CC(C)c1nc(C(=O)Nc2ccc(F)c(Cl)c2)cs1 [LDN-211986],Yes,EC50 [1]: 1500 nM; Emax [2]: 100%
C=C1CC(c2cccc3ccccc23)c2c(cc(OC)c(OC)c2OC)N1 (centres unmarked) [LDN-212350],No/Weak,
"CC(/C=C/C(=O)NO)=C\[C@@H](C)C(=O)c1ccc(N(C)C)cc1 [Trichostatin A, trichostatin A, reference compound]",,"Max. fold increase: 15 fold; EC50 (cell-based reporter, known SMN2 modulating compounds, read-out: EC50): 230 nM"
COc1ccc(-c2cn3cccc(C)c3n2)cc1Br [Compound 32531],,% activation (reporter assay): 108%
COc1cc2c(c(OC)c1OC)C(c1cc(Cl)ccc1F)NC(=O)N2 (centres unmarked) [LDN-213767],Yes,"Max % Activity (reporter assay, Table 6): 125%; EC50 (reporter assay, Table 6, read-out: Ec50): 8400 nM"
COc1cc2c(c(OC)c1)C(c1cc(Br)ccc1F)CC(=O)N2 (centres unmarked) [LDN-212264],No,
CCN(CC)CCCNC(=O)c1cc(C2CC2)on1 [CAL-42],No,
CC(C)c1cc(NC(=O)Cc2ccc(F)c(Cl)c2)no1 [LDN-211832],No,
CC(C)c1cc(C(=O)Nc2cccc(Cl)c2)no1 [CAL-25],Yes,EC50 [1]: 350 nM; Emax [2]: 237%
COc1cc2c(c(OC)c1OC)C(c1cccc(Cl)c1Cl)CC(=O)N2 (centres unmarked) [CAL-56],No,
O=C(Nc1ccc(F)c(Cl)c1)C1=NOC(C2CC2)C1 (centres unmarked) [CAL-10],Yes,EC50 [1]: 2000 nM; Emax [2]: 250%
COc1cc2c(c(OC)c1OC)C(c1cccc(C(F)(F)F)c1)CC(=O)N2 (centres unmarked) [CAL-55],No,
CC1CC(C(=O)Nc2ccc(F)cc2)=NO1 (centres unmarked) [CAL-5],Yes,EC50 [1]: 10000 nM; Emax [2]: 108%
CC(C)(C)c1cc(NC(=O)c2ccc(F)c(Cl)c2)on1 [LDN-211861],Yes,EC50 [1]: 3700 nM; Emax [2]: 100%
CC(C)(C)c1cc(NC(=O)c2ccc3ccccc3n2)no1 [LDN-211908],No/Weak,
CC(C)c1cc(C(=O)Nc2ccc(F)c(Cl)c2)nn1C [LDN-211856],No,

SMILES,"Active (reporter assay, Table 6)",further results
COc1cc2c(c(OC)c1OC)C(c1cc(Cl)ccc1F)C(C)C(=O)N2 (centres unmarked) [LDN-214085],Yes,EC50 [1]: 6000 nM; Emax [2]: 180%
CC(C)c1nc(C(=O)Nc2ccc(F)c(Cl)c2)co1 [LDN-212015],Yes,EC50 [1]: 1700 nM; Emax [2]: 100%
COc1cc2c(c(OC)c1OC)C(c1cccnc1)CC(=O)N2 (centres unmarked) [LDN-76158],No,
CC(C)(O)c1sc(NC(=O)C2CCC(F)C(Cl)C2)nc1C(F)(F)F (centres unmarked) [LDN-213766],No,
CC(C)(C)c1cc(NC(=O)c2nc3ccccc3[nH]2)no1 [LDN-214095],No,
COC(=O)c1ccc2nc(NC(=O)C(C)C)sc2c1 [Compound 110116],,% activation (reporter assay): 97%
COc1cc2c(c(OC)c1OC)C(c1c(F)cccc1Cl)CC(=O)N2 (centres unmarked) [CAL-53],Yes,EC50 [1]: 91000 nM; Emax [2]: 27%
COc1cc2c(c(OC)c1OC)C(c1ccc(Cl)c(Cl)c1)CC(=O)N2 (centres unmarked) [LDN-212266],No/Weak,
CC(C)(C)C(=O)Nc1nc(COc2ccccc2)cs1 [Compound 109981],,% activation (reporter assay): 98%
COc1cc2c(c(OC)c1OC)C(c1cc(Br)ccc1F)CC(=O)N2C (centres unmarked) [LDN-212263],No,
"NC[C@H]1O[C@H](O[C@H]2[C@H](O)[C@@H](O[C@H]3O[C@H](CO)[C@@H](O)[C@H](N)[C@H]3O)[C@H](N)C[C@@H]2N)[C@H](N)C[C@@H]1O [Tobramycin, tobramycin, reference compound]",,"response of luciferase activity in the reporter cell lines (SMN1-luc and SMN2-luc cell lines, words): no response; Max. fold increase: inactive ^a; EC50 (cell-based reporter, result in words): inactive ^a"
O=C(Nc1nc2c(s1)Cc1ccccc1-2)C1=COCCO1 [Compound 110181],,% activation (reporter assay): 120%
Brc1ccc(-c2cn3ccccc3n2)cc1 [Compound 66278],,% activation (reporter assay): 114%
CC1CC(C(=O)Nc2cccnc2)=NO1 (centres unmarked) [CAL-9],No,
O=C(Nc1ccc2c(c1)OCO2)c1cc(C2CC2)on1 [CAL-33],Yes,EC50 [1]: 1700 nM; Emax [2]: 217%
CC(C)c1cc(C(=O)Nc2cc(Cl)ccc2Cl)no1 [CAL-28],Yes,EC50 [1]: 900 nM; Emax [2]: 59%
COc1cc2c(c(OC)c1OC)C(c1ccnc(Cl)c1)CC(=O)N2 (centres unmarked) [LDN-212393],No/Weak,
COc1cc2c(c(OC)c1OC)C(c1cc(Cl)ccc1F)N(CCN(C)C)C(=O)N2 (centres unmarked) [LDN-214097],No,
CC(C)(C)c1cc(NC(=O)c2cc3ccccc3[nH]2)no1 [LDN-211911],Yes,EC50 [1]: 400 nM; Emax [2]: 175%
COCCOc1c(OC)cc2c(c1OC)C(c1cc(Cl)ccc1F)CC(=O)N2 (centres unmarked) [LDN-213772],No,
COc1cc2c(c(OC)c1OC)C(c1ccccc1F)CC(=O)N2 (centres unmarked) [CAL-22],No,

SMILES,"Active (reporter assay, Table 6)",further results
COc1cc2c(c(OC)c1OC)C(c1cccnc1Cl)CC(=O)N2 (centres unmarked) [LDN-212390],No,
CCOC(=O)C1C(=O)Nc2cc(OC)c(OC)c(OC)c2C1c1cc(Cl)ccc1F (centres unmarked) [LDN-212388],No,
CC(C)(C)c1cc(C(=O)Nc2ccc(F)c(Cl)c2)no1 [LDN-211858],No,
COc1cc2c(c(OC)c1OC)C(c1cccc(-c3ccccc3)c1)CC(=O)N2 (centres unmarked) [LDN-212267],No,
COC1=CC2NC(=O)CC(c3cc([N+](=O)[O-])ccc3F)C2C(OC)=C1OC (centres unmarked) [LDN-212354],No/Weak,
CCCC1C(=O)Nc2cc(OC)c(OC)c(OC)c2C1c1cc(Cl)ccc1F (centres unmarked) [LDN-214096],No,
COc1cc2c(c(OC)c1OC)C(c1ccc(F)c(F)c1)CC(=O)N2 (centres unmarked) [CAL-57],No,
Brc1ccc(OCc2cn3cccnc3n2)c(Br)c1 [Compound 67615],,% activation (reporter assay): 105%
C=C/C(Cl)=C(\CCl)NC(=O)c1cc(C(C)C)on1 [CAL-30],No,
COC1=CC2NC(=O)CC(c3cc(NC(C)=O)ccc3F)C2C(OC)=C1OC (centres unmarked) [LDN-212360],No,
O=C(Nc1nnc(-c2ccccc2)s1)c1ccc(F)c(Cl)c1 [LDN-211982],No,
O=C(NCCn1ccc2ccccc21)c1ccc2c(c1)OCO2 [Compound 107992],,% activation (reporter assay): 121%
CC(=O)N1c2ccccc2C(Nc2ccccc2)CC1C (centres unmarked) [Compound 66854],,% activation (reporter assay): 210%
COc1cc2[nH]c(=O)cc(-c3cc(Br)ccc3F)c2c(OC)c1OC [LDN-212265],No,
COc1cc2c(c(OC)c1OC)C(c1cc(Cl)ccc1F)OC(=O)N2 (centres unmarked) [LDN-213768],Yes,EC50 [1]: 5900 nM; Emax [2]: 150%
Cc1cnc(NC(=O)c2ccc(F)c(Cl)c2)s1 [LDN-211985],Yes,EC50 [1]: 800 nM; Emax [2]: 150%
CC(C)Cc1cc(C(=O)Nc2ccc(F)c(Cl)c2)no1 [LDN-75879],Yes,EC50 [1]: 1500 nM; Emax [2]: 180%
COc1cc2c(c(OC)c1OC)C(c1cccc3ccccc13)CC(=O)N2 (centres unmarked) [LDN-212355],No/Weak,
COc1ccc(NC(=O)c2cc(C(C)C)on2)c(OC)c1 [CAL-27],Yes,EC50 [1]: 1000 nM; Emax [2]: 125%
COc1cc2c(c(OC)c1OC)C(c1cc(C=N)ccc1F)CC(=O)N2 (centres unmarked) [LDN-212361],No,
O=C(c1cc(C2CC2)on1)N1CCCc2ccccc21 [CAL-36],No,
